# Measurements taken from ChEMBL document CHEMBL4808241, “Synthesis and biological evaluation of 1,6-bis-triazole-2,3,4-tri-O-benzyl-α-d-glucopyranosides as a novel α-glucosidase inhibitor in the treatment of Type 2 diabetes” (Bioorg Med Chem Lett, 2021).
# Calls of active or inactive are those of the source. No cut-off for these calls is given here.
# Molecular target: not listed separately
# Test: Inhibition of Saccharomyces cerevisiae alpha-glucosidase
row,Structure (SMILES),IC50
1,c1ccc(CO[C@@H]2[C@@H](OCc3ccccc3)[C@@H](OCc3cn(CCOc4cccc5ccccc45)nn3)O[C@H](COCc3cn(CCOc4cccc5ccccc45)nn3)[C@H]2OCc2ccccc2)cc1,29.4 µM
2,c1ccc(CO[C@@H]2[C@@H](OCc3ccccc3)[C@@H](OCc3cn(CCOc4ccc5ccccc5c4)nn3)O[C@H](COCc3cn(CCOc4ccc5ccccc5c4)nn3)[C@H]2OCc2ccccc2)cc1,13.9 µM
3,c1ccc(CO[C@@H]2[C@@H](OCc3ccccc3)[C@@H](OCc3cn(CCOc4ccccc4)nn3)O[C@H](COCc3cn(CCOc4ccccc4)nn3)[C@H]2OCc2ccccc2)cc1,24.4 µM
4,c1ccc(CO[C@@H]2[C@@H](OCc3ccccc3)[C@@H](OCc3cn(Cc4ccccc4)nn3)O[C@H](COCc3cn(Cc4ccccc4)nn3)[C@H]2OCc2ccccc2)cc1,12.1 µM
5,O=C(Cn1cc(COC[C@H]2O[C@H](OCc3cn(CC(=O)OCc4ccc([N+](=O)[O-])cc4)nn3)[C@H](OCc3ccccc3)[C@@H](OCc3ccccc3)[C@@H]2OCc2ccccc2)nn1)OCc1ccc([N+](=O)[O-])cc1,5.68 µM
6,O=[N+]([O-])c1ccc(Cn2cc(COC[C@H]3O[C@H](OCc4cn(Cc5ccc([N+](=O)[O-])cc5)nn4)[C@H](OCc4ccccc4)[C@@H](OCc4ccccc4)[C@@H]3OCc3ccccc3)nn2)cc1,53.3 µM
7,O=C(Cn1cc(COC[C@H]2O[C@H](OCc3cn(CC(=O)Oc4cccc5ccccc45)nn3)[C@H](OCc3ccccc3)[C@@H](OCc3ccccc3)[C@@H]2OCc2ccccc2)nn1)Oc1cccc2ccccc12,9.98 µM
8,CCCCCCCC/C=C\CCCCCCCCn1cc(COC[C@H]2O[C@H](OCc3cn(CCCCCCCC/C=C\CCCCCCCC)nn3)[C@H](OCc3ccccc3)[C@@H](OCc3ccccc3)[C@@H]2OCc2ccccc2)nn1,14.1 µM

# Results, then the compound that gave them:
row,IC50,Structure (SMILES)
1,146 µM,C[C@H]1O[C@H](O[C@H]2[C@H](O)[C@@H](O)[C@@H](O[C@H]3[C@H](O)[C@@H](O)C(O)O[C@@H]3CO)O[C@@H]2CO)[C@H](O)[C@@H](O)[C@@H]1N[C@H]1C=C(CO)[C@@H](O)[C@H](O)[C@H]1O (some centres undefined) [ACARBOSE]
2,21.7 µM,O=c1ccc2cc(OCCCCCCn3cc(COC[C@H]4O[C@H](OCc5cn(CCCCCCOc6ccc7oc(=O)ccc7c6)nn5)[C@H](OCc5ccccc5)[C@@H](OCc5ccccc5)[C@@H]4OCc4ccccc4)nn3)ccc2o1
3,50.5 µM,Cc1ccc(OCCn2cc(COC[C@H]3O[C@H](OCc4cn(CCOc5ccc(C)cc5)nn4)[C@H](OCc4ccccc4)[C@@H](OCc4ccccc4)[C@@H]3OCc3ccccc3)nn2)cc1
4,20.8 µM,O=C1C=C(OCCCCCCn2cc(COC[C@H]3O[C@H](OCc4cn(CCCCCCOC5=CC(=O)Cc6ccccc65)nn4)[C@H](OCc4ccccc4)[C@@H](OCc4ccccc4)[C@@H]3OCc3ccccc3)nn2)c2ccccc2C1
5,37.3 µM,Fc1ccc(Cn2cc(COC[C@H]3O[C@H](OCc4cn(Cc5ccc(F)cc5)nn4)[C@H](OCc4ccccc4)[C@@H](OCc4ccccc4)[C@@H]3OCc3ccccc3)nn2)cc1
6,22.9 µM,O=[N+]([O-])c1cccc(Cn2cc(COC[C@H]3O[C@H](OCc4cn(Cc5cccc([N+](=O)[O-])c5)nn4)[C@H](OCc4ccccc4)[C@@H](OCc4ccccc4)[C@@H]3OCc3ccccc3)nn2)c1
7,3.86 µM,COc1ccc(OC)c(Cn2cc(COC[C@H]3O[C@H](OCc4cn(Cc5cc(OC)ccc5OC)nn4)[C@H](OCc4ccccc4)[C@@H](OCc4ccccc4)[C@@H]3OCc3ccccc3)nn2)c1
8,3.73 µM,CC(C)[C@@H]1CC[C@@H](C)C[C@H]1OC(=O)Cn1cc(COC[C@H]2O[C@H](OCc3cn(CC(=O)O[C@@H]4C[C@H](C)CC[C@H]4C(C)C)nn3)[C@H](OCc3ccccc3)[C@@H](OCc3ccccc3)[C@@H]2OCc2ccccc2)nn1

# Test system: Saccharomyces cerevisiae
# Test: Potency index, ratio of acarbose IC50 to test compound IC50 for Saccharomyces cerevisiae alpha-glucosidase
row,Ratio IC50,Structure (SMILES)
1,39,CC(C)[C@@H]1CC[C@@H](C)C[C@H]1OC(=O)Cn1cc(COC[C@H]2O[C@H](OCc3cn(CC(=O)O[C@@H]4C[C@H](C)CC[C@H]4C(C)C)nn3)[C@H](OCc3ccccc3)[C@@H](OCc3ccccc3)[C@@H]2OCc2ccccc2)nn1

# Species on record: Homo sapiens
# Test: Competitive inhibition of alpha-glucosidase (unknown origin) by kinetics based analysis
row,inhibition,Structure (SMILES)
1,Active,CC(C)[C@@H]1CC[C@@H](C)C[C@H]1OC(=O)Cn1cc(COC[C@H]2O[C@H](OCc3cn(CC(=O)O[C@@H]4C[C@H](C)CC[C@H]4C(C)C)nn3)[C@H](OCc3ccccc3)[C@@H](OCc3ccccc3)[C@@H]2OCc2ccccc2)nn1

# Test system: Saccharomyces cerevisiae
# Test: Inhibition of Saccharomyces cerevisiae alpha-glucosidase at 0.1 mg/ml
row,Structure (SMILES),inhibition
1,COc1cccc(COC(=O)Cn2cc(COC[C@H]3O[C@H](OCc4cn(CC(=O)OCc5cccc(OC)c5)nn4)[C@H](OCc4ccccc4)[C@@H](OCc4ccccc4)[C@@H]3OCc3ccccc3)nn2)c1,inactive
2,O=C(Cn1cc(COC[C@H]2O[C@H](OCc3cn(CC(=O)OC(c4ccccc4)c4ccccc4)nn3)[C@H](OCc3ccccc3)[C@@H](OCc3ccccc3)[C@@H]2OCc2ccccc2)nn1)OC(c1ccccc1)c1ccccc1,inactive
3,COc1ccc(OC)c(COC(=O)Cn2cc(COC[C@H]3O[C@H](OCc4cn(CC(=O)OCc5cc(OC)ccc5OC)nn4)[C@H](OCc4ccccc4)[C@@H](OCc4ccccc4)[C@@H]3OCc3ccccc3)nn2)c1,inactive
4,COc1cc(Cn2cc(COC[C@H]3O[C@H](OCc4cn(Cc5ccc(OCc6ccccc6)c(OC)c5)nn4)[C@H](OCc4ccccc4)[C@@H](OCc4ccccc4)[C@@H]3OCc3ccccc3)nn2)ccc1OCc1ccccc1,inactive
5,O=C(Cn1cc(COC[C@H]2O[C@H](OCc3cn(CC(=O)c4cc5ccccc5oc4=O)nn3)[C@H](OCc3ccccc3)[C@@H](OCc3ccccc3)[C@@H]2OCc2ccccc2)nn1)c1cc2ccccc2oc1=O,inactive
6,c1ccc(CO[C@@H]2[C@@H](OCc3ccccc3)[C@@H](OCc3cn(C(c4ccccc4)c4ccccc4)nn3)O[C@H](COCc3cn(C(c4ccccc4)c4ccccc4)nn3)[C@H]2OCc2ccccc2)cc1,inactive
7,COc1cccc(Cn2cc(COC[C@H]3O[C@H](OCc4cn(Cc5cccc(OC)c5)nn4)[C@H](OCc4ccccc4)[C@@H](OCc4ccccc4)[C@@H]3OCc3ccccc3)nn2)c1,inactive

# The remaining lines, values ahead:
row,inhibition,Structure (SMILES)
1,inactive,C=CCc1ccccc1OCCn1cc(COC[C@H]2O[C@H](OCc3cn(CCOc4ccccc4CC=C)nn3)[C@H](OCc3ccccc3)[C@@H](OCc3ccccc3)[C@@H]2OCc2ccccc2)nn1
2,inactive,C=CCCCCCCCCCn1cc(COC[C@H]2O[C@H](OCc3cn(CCCCCCCCCC=C)nn3)[C@H](OCc3ccccc3)[C@@H](OCc3ccccc3)[C@@H]2OCc2ccccc2)nn1
3,inactive,CCCCCCCCCCCCCCCCCCn1cc(COC[C@H]2O[C@H](OCc3cn(CCCCCCCCCCCCCCCCCC)nn3)[C@H](OCc3ccccc3)[C@@H](OCc3ccccc3)[C@@H]2OCc2ccccc2)nn1
4,inactive,c1ccc(CCn2cc(COC[C@H]3O[C@H](OCc4cn(CCc5ccccc5)nn4)[C@H](OCc4ccccc4)[C@@H](OCc4ccccc4)[C@@H]3OCc3ccccc3)nn2)cc1
5,inactive,COc1ccc(COC(=O)Cn2cc(COC[C@H]3O[C@H](OCc4cn(CC(=O)OCc5ccc(OC)cc5)nn4)[C@H](OCc4ccccc4)[C@@H](OCc4ccccc4)[C@@H]3OCc3ccccc3)nn2)cc1
6,inactive,O=C(Cn1cc(COC[C@H]2O[C@H](OCc3cn(CC(=O)OCc4ccccc4)nn3)[C@H](OCc3ccccc3)[C@@H](OCc3ccccc3)[C@@H]2OCc2ccccc2)nn1)OCc1ccccc1
7,inactive,COc1cc(COC(=O)Cn2cc(COC[C@H]3O[C@H](OCc4cn(CC(=O)OCc5ccc(OCc6ccccc6)c(OC)c5)nn4)[C@H](OCc4ccccc4)[C@@H](OCc4ccccc4)[C@@H]3OCc3ccccc3)nn2)ccc1OCc1ccccc1
8,inactive,CCCCCCCCCCCCCn1cc(COC[C@H]2O[C@H](OCc3cn(CCCCCCCCCCCCC)nn3)[C@H](OCc3ccccc3)[C@@H](OCc3ccccc3)[C@@H]2OCc2ccccc2)nn1
9,inactive,Cc1cc(COC(=O)Cn2cc(COC[C@H]3O[C@H](OCc4cn(CC(=O)OCc5ccc(Cl)c(C)c5)nn4)[C@H](OCc4ccccc4)[C@@H](OCc4ccccc4)[C@@H]3OCc3ccccc3)nn2)ccc1Cl
